Experimental data taken from patent US20220249596A1, “PIC1 PEPTIDE COMPOSITIONS AND METHODS OF USE THEREOF FOR TREATMENT OF HYPOXIC ISCHEMIC ENCEPHALOPATHY” (REALTA HOLDINGS, LLC, priority 2019, published 2022).
No end group written: not given here.

How the values were obtained:
Format in all cases: in vivo, rat
MPO (Myeloperoxidase) = assay: Myeloperoxidase expression in cortex (oxidant stress); conditions: 48 hours after injury, versus NT animals, P<0.01
Protocol: After blocking for one hour at room temperature, tissues were incubated with 1:300 goat anti-Iba1 (Abcam), 1:250 goat anti-GFAP (Abcam), 1:500 chicken anti-NeuN (Millipore, Billerica, Mass.), or 1:100 mouse anti-NeuN (Millipore) in host appropriate blocking serum overnight at 4° C. Primary antibodies were probed with 1:500 donkey anti-goat (Abcam), goat anti-chicken (Abcam), or goat anti-mouse (Abcam) AF 488 or 568 in appropriate blocking serum for one hour at room temperature. Tissues were blocked a second time with NGS for one hour at room temperature. Samples were then probed with 1:300 mouse anti-C1q (Abcam), 1:300 rabbit anti-C9, 1:50 rabbit anti-MPO (Abcam), 1:200 rabbit anti-TMEM (Novus Bio, Centennial, Colo.), 1:100 rabbit anti-C3aR (Bioss), 1:100 Mouse anti-C5aR (Hycult), or 1:200 chicken anti-C3/C3a (Abcam) in NGS overnight at 4° C. and then with 1:500 goat anti-mouse, rabbit, or chicken (Abcam) AF 488 or 568 in NGS for one hour at room temperature.
To examine the effect of PIC1 treatment on oxidant stress, expression of the enzyme myeloperoxidase (MPO) was measured in the cortex of the brain. MPO is an enzyme from neutrophils that damages invading and host cells alike. MPO is one of the markers of oxidative stress after ischemic injury and is responsible for generating reactive oxygen species (hypochlorous acid and hydrogen peroxide). […]

[1] = Beam walk assay, fine motor coordination and balance; conditions: versus NT animals
Protocol: Fine motor coordination and balance was assessed by a beam walk assay, which was performed as follows. Gross motor function and balance was evaluated using the beam walking test 6 weeks after HIE. Beams of varying widths (19 mm, 13 mm, or 6 mm) were used that led to a dark escape box. Each beam was 90 cm long and elevated 60 cm from the ground. The goal of this test is for the rat to stay upright and walk across elevated narrow beams of decreasing width (0.75 and 0.25 inches, or 19 mm and 6 mm) to a safe platform.
Rats were placed on a loading platform on the proximal end of the apparatus, and instinctively walked towards the box when placed on a beam. Rats were trained on each beam prior to the test. On the test day, rats were placed on the loading platform, and videos were recorded. Rats were given up to 5 attempts to cross each beam. Failures, i.e., inability to cross along with right and left foot slips, were analyzed by an investigator blinded to the treatment

[2] = Novel object recognition test; conditions: 8 weeks after HIE, versus HT and NT animals, P<0.05
Protocol: The novel object recognition test was performed at 8 weeks after HIE to test cognitive function by evaluating the differences in the exploration time of novel and familiar objects. The novel object recognition task tests for short-term, intermediate and long-term memory without the need for external motivation, reward, or punishment. Results on the test are influenced by both hippocampal and cortical injury. The test is based on the concept that when animals are exposed to a familiar and a novel object, they spend more time exploring the novel object. It is thought that the recognition of novelty requires more cognitive skills from the subject.
Rats were trained for two days prior to novel object testing. During the training sessions, the rat was allowed to explore the testing chamber, a polycarbonate box (40×40 cm) with two identical objects for three minutes. On testing day, one of the familiar objects was replaced with a novel object, made with the same material but a different shape, and allowed to explore for three minutes. Video recordings of the interactions were reviewed by blinded investigators. Object exploration was defined as the rat directing its nose toward the object at a distance of less than 2 cm. The DINOR was calculated as ((time with novel object−time with familiar object))/(total time spent with objects).

## IALILEPICCQERAA-dPEG24 (cysteine pairing not given here) [PIC1]
MPO (Myeloperoxidase)
  decrease of MPO expression in brain: 83%
[1]; 0.25 inch beam
  beam walk performance: performed significantly better
[1]; 0.75 inch beam
  beam walk performance: performed significantly better
[2]
  novel object recognition: proportion of time exploring the novel object: significantly higher proportion of time
